Data on one compound can be found in US9556202B2, “Sulfonamide derivatives and methods of use thereof for improving the pharmacokinetics of a drug” (MERCK SHARP & DOHME CORP., priority 2012, dated 2017).

One assay has as its target T1, CYP3A4 (Homo sapiens, UniProt P08684).
T1 construct: 0.01 mg/mL protein human liver microsomes (BD Gentest); tissue BD Gentest; host or cells: human liver microsomes
Put plainly: IC50 vs CYP3A by inhibition of lopinavir metabolism in human liver microsomes. As to conditions: human liver microsomes 0.01 mg/mL, 1.5 μM lopinavir, 8 min 37° C.; test conc. e.g. 0.098-100 nM; unit inferred; read-out: 3A4(LPV). It is filed as biochemical. How it is done: Determination of IC50 Vs CYP3A by Measurement of Inhibition of Lopinavir Metabolism
This assay was performed in a standard 96-well plate design. IC50 values were calculated from the percent inhibition observed for each test compound at 6 concentrations (for example, 0.098, 0.391, 1.56, 6.25, 25 and 100 nM). The incubation substrate mix contains 1.5 μM lopinavir, 0.01 mg/mL protein human liver microsomes (BD Gentest), 1 mM NAPDH, 3.3 mM MgCl2 and 100 mM potassium phosphate buffer (pH 7.4). The production of the sum of three hydroxylated metabolites (M2: 6-hydroxy lopinavir, M3: 4-hydroxy lopinavir, M4: 4-hydroxy lopinavir (epimer of M3), Kumar et al., 1999) was determined after incubation for 8 min at 37° C. Quantitation of the metabolite peak area ratio against an internal standard (tolbutamide) was determined by LC/MS/MS analysis following acetonitrile treatment of the incubations.
Samples were analyzed in the MRM mode with a SCIEX API-4000 mass spectrometer (Applied Biosystems, Foster City, Calif.), with a Shimadzu LC-20 AD pump (Shimadzu corporation, Kyoto, JP) and a CTC PAL autosampler (Agilent Technologies, Switzerland). A Phenomenex, Luna, 5 μm, 100 A, 2.00×30 mm HPLC column was used for the separation. The mobile phases were: (A) 0.1% formic acid in water and (B) 0.1% formic acid in acetonitrile. The binary gradient was as follows.
The peak area ratio of the analyte to the internal standard was used to quantify the metabolite. The values of peak area ratios in the presence of test compound were compared to those of maximum or minimum controls and were expressed as % inhibition by interpolating between the maximum and minimum peak area ratios. Incubations with no inhibitor were defined as the maxima and with 5 μM ketoconazole were defined as the minima.
The following equation was used to calculate the % inhibition: [1−[(X−Low control)/(High control−Low control)]]*100
For the IC50 calculation, SigmaPlot was used to plot the mean % inhibition versus the test compound concentrations and for non-linear regression analysis of the data. Depending on the range of data points defining the inhibition curve, the data may have been fit to the 4-parameter logistic equation.
In general terms: Liver microsomes are vesicles of endoplasmic reticulum, rich in cytochrome P450 enzymes.

For another assay, the target named is T2, human CYP11B2 (Homo sapiens, UniProt P19099).
T2 construct: expressed in transfected cells
T2 sequence (P19099 25-503): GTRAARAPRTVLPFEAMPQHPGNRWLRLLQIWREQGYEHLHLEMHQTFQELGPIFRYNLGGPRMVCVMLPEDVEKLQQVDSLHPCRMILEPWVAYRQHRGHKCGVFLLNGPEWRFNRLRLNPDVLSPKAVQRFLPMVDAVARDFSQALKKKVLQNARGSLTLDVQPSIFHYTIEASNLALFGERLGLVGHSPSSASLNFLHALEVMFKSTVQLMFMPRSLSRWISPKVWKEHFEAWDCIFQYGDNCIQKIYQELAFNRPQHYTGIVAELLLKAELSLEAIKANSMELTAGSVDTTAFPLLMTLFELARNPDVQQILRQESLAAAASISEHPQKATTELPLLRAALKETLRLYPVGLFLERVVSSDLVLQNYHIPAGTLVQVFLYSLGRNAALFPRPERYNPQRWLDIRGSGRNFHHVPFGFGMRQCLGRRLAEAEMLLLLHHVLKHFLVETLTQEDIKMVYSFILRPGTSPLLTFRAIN
Put plainly: IC50 vs CYP11B2 by aldosterone synthesis in V79 cells (HTRF). It is filed as cell-based. As to conditions: V79 cells expressing human CYP11B2, 750 nM DOC, test conc. 0.5-10000 nM, unit inferred. How it is done: Determination of IC50 Vs CYP11B1/CYP11B2 by Measurement of Cortisol/Aldosterone Synthesis
This assay was performed in a standard 384-well plate design using cultured V79 cells stably expressing human CYP11B1 or human CYP11B2. Test compounds at 10 concentrations (for example, 10000, 3333.3, 1111.1, 370.4, 123.5, 41.2, 13.7, 4.6, 1.5 and 0.5 nM) were added in 384-well plate after the cell-seeding procedure. The incubation substrate contains 1500 nM RSS for CYP11B1 assay/750 nM DOC for CYP11B2 assay. The Cortisol/Aldosterone production of cell culture supernatant was determined by Cortisol/Aldosterone HTRF kit after for about 15 hours incubation at RT (protect from light). IC50 values were calculated from the percent inhibition observed for each test compound at 10 concentrations.
The assay plate was read using Envision (Perkin Elmer, Waltham, Mass.) at 665 nm and 590 nm (using Filter Barcode of 217#, 205#; Mirror Barcode of 446#).
Data are analyzed using Assay Data Analyzer. All ratio data (665 nm/590 nm) are back calculated according to the standard curve, resulting in Cortisol/Aldosterone concentrations. IC50 values are reported as the Inflection Point (IP) of a four parameter fit of the titration data.
The following equation was used to calculate the % inhibition: % Activity=100×{1−(Sample_back calculated Cortisol/Aldosterone concentration−LC_back calculated Cortisol/Aldosterone concentration)/(HC_back calculated Cortisol/Aldosterone concentration−LC_back calculated Cortisol/Aldosterone concentration)} Curve Fitting: Four Parameter Logistic: […]
In general terms: TR-FRET usually uses a lanthanide donor and a delayed reading to cut background.

pIC50: −log10 of the molar value.

T1 sequence (P08684 2-503): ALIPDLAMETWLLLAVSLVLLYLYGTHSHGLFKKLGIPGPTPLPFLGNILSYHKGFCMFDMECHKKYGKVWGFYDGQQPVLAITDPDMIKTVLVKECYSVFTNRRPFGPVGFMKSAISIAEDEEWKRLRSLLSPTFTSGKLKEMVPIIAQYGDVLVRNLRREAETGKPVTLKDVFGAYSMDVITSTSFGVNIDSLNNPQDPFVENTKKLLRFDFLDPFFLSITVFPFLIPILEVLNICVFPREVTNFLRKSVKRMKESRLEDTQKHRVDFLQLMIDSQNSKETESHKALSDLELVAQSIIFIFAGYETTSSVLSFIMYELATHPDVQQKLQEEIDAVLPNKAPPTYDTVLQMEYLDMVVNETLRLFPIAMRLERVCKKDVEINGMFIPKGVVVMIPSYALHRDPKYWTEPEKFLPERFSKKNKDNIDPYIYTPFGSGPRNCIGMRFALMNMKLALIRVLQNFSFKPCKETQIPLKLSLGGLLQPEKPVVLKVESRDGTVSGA

As to `C[C@H](c1ccc(F)cc1)n1cncc1CN1CCN(S(=O)(=O)c2cnc(N3CCC(S(C)(=O)=O)C3)s2)CC1` (some centres unmarked) [Compound 7], the pIC50 at CYP3A4 was 8.77; against human CYP11B2, 4.79.
